This is an account of results in patent US20040110787A1, “Heteroaryl-ethanolamine derivatives as antiviral agents” (priority 2002, published 2004).

One series addresses T1, HCMV polymerase (Human cytomegalovirus, UniProt P08546).
T1 construct: made in house; host or cells: recombinant baculovirus-infected SF-9 cells
Nature of the series: HCMV polymerase scintillation proximity assay (SPA). The conditions noted are these: HCMV polymerase, SPA; read-out: Polymerase IC50 HCMV. The series is classed as biochemical. Here is the method:
The HCMV polymerase assay is performed using a scintillation proximity assay (SPA) as described in several references, such as N. D. Cook, et al., Pharmaceutical Manufacturing International, pages 49-53 (1992); K Takeuchi, Laboratory Practice, September issue (1992); U.S. Pat. No. 4,568,649 (1986); which are incorporated by reference herein. Reactions are performed in 96-well plates. The assay is conducted in 100 μl volume with 5.4 mM HEPES (pH 7.5), 11.7 mM KCl, 4.5 mM MgCl2, 0.36 mg/ml BSA, and 90 nM ^3H-dTTP. Assays are run with and without CHAPS, (3-[(3-Cholamidopropyl)-dimethylammonio]-1-propane-sulfonate) at a final concentration of 2 mM. HCMV polymerase is diluted in enzyme dilution buffer containing 50% glycerol, 250 mM NaCl, 10 mM HEPES (pH 7.5), 100 μg/ml BSA, and 0.01% sodium azide. The HCMV polymerase, which is expressed in, recombinant baculovirus-infected SF-9 cells and purified according to literature procedures, is added at 10% (or 10 μl) of the final reaction volume, i.e., 100 μl. Compounds are diluted in 50% DMSO and 10 μl are added to each well. Control wells contain an equivalent concentration of DMSO. Unless noted otherwise, reactions are initiated via the addition of 6 nM biotinylated poly(dA)-oligo(dT) template/primer to reaction mixtures containing the enzyme, substrate, and compounds of interest. Plates are incubated in a 25° C. or 37° C. H2O bath and terminated via the addition of 40 μl/reaction of 0.5 M EDTA (pH 8) per well. Reactions are terminated within the time-frame during which substrate incorporation is linear and varied depending upon the enzyme and conditions used, i.e., 30 min. for HCMV polymerase. Ten (10) 10 μL of streptavidin-SPA beads (20 mg/ml in PBS/10% glycerol) are added following termination of the reaction. Plates are incubated 10 min. at 37° C., then equilibrated to room temperature, and counted on a Packard Topcount. Linear regressions are performed and IC50's are calculated using computer software.
A modified version of the above HCMV polymerase assay is performed as described above, but with the following changes: Compounds are diluted in 100% DMSO until final dilution into assay buffer. In the previous assay, compounds are diluted in 50% DMSO. 4.5 mM Dithiothreitol (DTT) is added to the polymerase buffer.
All results are listed as Polymerase IC50 ([…]) values. In Table 1, the term “n.d.” refers to activity data not determined.
(In general: Scintillation proximity formats need no separation of bound from free tracer.)

A further series addresses HSV polymerase (Human herpesvirus 1, UniProt P04293). The series is described as follows: HSV polymerase assay (Table 1). Type of series: biochemical.
The target in the next series is VZV polymerase (Varicella-zoster virus, UniProt P09252). Nature of the series: VZV polymerase assay (Table 1). Type of series: biochemical.
Chain of VZV polymerase (P09252 whole entry): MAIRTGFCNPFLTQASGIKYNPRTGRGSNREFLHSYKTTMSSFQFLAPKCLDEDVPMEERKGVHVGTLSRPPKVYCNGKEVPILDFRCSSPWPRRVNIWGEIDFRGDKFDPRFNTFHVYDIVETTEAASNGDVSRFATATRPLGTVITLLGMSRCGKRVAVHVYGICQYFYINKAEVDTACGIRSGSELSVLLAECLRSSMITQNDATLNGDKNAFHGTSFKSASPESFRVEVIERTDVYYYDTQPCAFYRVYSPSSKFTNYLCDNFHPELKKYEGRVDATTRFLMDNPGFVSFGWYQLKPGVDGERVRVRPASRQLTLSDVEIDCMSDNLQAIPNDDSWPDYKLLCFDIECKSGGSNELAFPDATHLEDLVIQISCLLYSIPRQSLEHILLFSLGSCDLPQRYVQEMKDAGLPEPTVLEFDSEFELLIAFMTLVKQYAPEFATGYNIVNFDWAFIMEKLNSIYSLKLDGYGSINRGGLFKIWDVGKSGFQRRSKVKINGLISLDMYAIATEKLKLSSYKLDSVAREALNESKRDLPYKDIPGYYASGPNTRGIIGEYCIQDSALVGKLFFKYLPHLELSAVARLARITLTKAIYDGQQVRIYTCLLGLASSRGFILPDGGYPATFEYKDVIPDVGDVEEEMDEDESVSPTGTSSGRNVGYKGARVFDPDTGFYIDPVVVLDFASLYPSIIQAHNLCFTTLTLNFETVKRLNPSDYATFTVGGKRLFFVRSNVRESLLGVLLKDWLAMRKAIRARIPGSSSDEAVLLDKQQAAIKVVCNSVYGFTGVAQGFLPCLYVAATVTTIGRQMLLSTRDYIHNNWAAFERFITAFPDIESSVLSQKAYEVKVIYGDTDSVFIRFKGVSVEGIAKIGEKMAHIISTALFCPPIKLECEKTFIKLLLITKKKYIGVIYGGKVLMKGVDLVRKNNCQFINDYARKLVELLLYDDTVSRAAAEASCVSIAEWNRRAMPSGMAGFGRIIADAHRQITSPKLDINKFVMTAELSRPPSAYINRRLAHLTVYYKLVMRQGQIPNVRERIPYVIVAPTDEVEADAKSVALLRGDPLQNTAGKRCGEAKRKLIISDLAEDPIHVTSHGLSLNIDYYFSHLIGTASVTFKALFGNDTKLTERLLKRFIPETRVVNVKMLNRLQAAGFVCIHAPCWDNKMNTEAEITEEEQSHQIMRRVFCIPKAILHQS

T1 sequence (P08546 whole entry): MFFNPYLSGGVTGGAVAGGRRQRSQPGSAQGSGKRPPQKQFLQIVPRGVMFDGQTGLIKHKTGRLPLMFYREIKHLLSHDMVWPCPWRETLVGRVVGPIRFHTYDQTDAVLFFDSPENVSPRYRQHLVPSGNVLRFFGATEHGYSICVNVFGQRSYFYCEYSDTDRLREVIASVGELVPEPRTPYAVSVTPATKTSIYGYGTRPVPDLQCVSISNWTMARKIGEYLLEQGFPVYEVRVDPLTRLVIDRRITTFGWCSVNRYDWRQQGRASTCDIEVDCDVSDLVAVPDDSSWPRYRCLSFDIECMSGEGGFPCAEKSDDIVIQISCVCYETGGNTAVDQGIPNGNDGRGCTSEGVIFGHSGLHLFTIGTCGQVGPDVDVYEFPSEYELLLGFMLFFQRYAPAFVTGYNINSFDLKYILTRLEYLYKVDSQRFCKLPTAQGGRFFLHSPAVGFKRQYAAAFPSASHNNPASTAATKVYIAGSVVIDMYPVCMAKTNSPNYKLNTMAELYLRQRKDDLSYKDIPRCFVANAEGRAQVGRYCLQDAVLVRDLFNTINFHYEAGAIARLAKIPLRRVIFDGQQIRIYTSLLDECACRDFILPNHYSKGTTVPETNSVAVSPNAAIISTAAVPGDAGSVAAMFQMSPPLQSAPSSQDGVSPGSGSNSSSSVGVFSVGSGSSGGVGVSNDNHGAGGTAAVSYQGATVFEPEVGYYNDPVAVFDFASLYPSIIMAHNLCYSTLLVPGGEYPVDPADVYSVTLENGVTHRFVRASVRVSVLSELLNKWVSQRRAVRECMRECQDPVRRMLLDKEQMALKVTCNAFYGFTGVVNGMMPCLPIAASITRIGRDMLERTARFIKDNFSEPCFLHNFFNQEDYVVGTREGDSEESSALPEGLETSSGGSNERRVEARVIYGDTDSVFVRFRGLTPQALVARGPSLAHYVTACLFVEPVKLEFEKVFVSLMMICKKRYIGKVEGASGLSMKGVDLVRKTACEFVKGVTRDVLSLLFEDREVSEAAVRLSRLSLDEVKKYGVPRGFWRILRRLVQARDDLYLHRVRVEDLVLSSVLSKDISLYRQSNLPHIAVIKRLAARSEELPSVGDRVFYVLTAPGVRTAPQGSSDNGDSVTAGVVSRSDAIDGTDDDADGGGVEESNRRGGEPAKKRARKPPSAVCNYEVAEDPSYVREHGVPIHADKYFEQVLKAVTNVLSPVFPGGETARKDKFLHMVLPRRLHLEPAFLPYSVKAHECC
Chain of HSV polymerase (P04293 whole entry): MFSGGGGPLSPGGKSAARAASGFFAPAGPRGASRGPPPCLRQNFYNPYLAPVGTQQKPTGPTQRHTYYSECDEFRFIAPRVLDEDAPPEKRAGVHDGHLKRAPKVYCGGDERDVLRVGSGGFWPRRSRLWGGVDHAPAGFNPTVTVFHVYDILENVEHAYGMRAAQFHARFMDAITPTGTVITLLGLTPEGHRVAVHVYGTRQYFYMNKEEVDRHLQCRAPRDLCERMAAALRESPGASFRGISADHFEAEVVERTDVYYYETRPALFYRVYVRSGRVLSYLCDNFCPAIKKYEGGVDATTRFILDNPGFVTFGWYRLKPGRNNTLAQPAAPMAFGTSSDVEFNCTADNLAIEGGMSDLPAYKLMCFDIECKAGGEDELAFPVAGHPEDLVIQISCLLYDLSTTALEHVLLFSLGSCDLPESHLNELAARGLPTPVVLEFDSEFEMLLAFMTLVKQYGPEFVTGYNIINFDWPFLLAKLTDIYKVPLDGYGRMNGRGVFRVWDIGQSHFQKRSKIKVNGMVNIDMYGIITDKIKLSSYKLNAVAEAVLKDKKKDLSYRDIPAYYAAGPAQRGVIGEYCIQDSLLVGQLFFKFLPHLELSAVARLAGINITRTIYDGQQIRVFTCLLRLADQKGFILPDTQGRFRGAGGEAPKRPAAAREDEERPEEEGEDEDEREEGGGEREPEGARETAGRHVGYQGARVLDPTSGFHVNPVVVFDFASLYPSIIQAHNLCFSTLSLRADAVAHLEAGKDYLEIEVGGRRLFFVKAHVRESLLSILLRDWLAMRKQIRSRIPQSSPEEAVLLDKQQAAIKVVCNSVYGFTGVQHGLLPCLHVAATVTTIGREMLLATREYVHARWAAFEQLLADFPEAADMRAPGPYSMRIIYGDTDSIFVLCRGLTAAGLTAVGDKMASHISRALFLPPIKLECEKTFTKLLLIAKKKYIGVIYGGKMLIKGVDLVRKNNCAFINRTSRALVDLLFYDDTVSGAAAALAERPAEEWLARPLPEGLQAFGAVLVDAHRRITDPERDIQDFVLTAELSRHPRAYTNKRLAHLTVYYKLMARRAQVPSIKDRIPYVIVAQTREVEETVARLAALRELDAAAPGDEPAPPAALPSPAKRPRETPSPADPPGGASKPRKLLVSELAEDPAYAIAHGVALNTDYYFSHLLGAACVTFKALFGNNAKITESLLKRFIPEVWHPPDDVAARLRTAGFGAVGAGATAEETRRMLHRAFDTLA

As a reminder, the IC50 is the midpoint of a concentration-inhibition curve. What is called melting point is the temperature, or range, at which the solid turns liquid. The compound `CN(Cc1cc2c(=O)c(C(=O)NCc3ccc(Cl)cc3)cn(C)c2s1)CC(O)c1ccc2ccccc2n1` (racemic) [Example 7, rac-N-(4-Chlorobenzyl)-2-(((2-hydroxy-2-quinolin-2-ylethyl)(methyl)amino)methyl)-7-methyl-4-oxo-4,7-dihydrothieno[2,3-b]pyridine-5-carboxamide] registered a melting point of 155 to 160 °C. The IC50 on HCMV polymerase was determined as 70 nM. The IC50 on HSV polymerase was found to be 150 nM. The same compound came in with an IC50 at VZV polymerase of 40 nM.
Compound `CN(Cc1cc2c(=O)c(C(=O)NCc3ccc(Cl)cc3)cn(C)c2s1)CC(O)c1ncccn1` (racemic) [Example 8, rac-N-(4-Chlorobenzyl)-2-(((2-hydroxy-2-pyrimidin-2-ylethyl)(methyl)amino)methyl)-7-methyl-4-oxo-4,7-dihydrothieno[2,3-b]pyridine-5-carboxamide] came in with a melting point of 181 °C. Also, at HCMV polymerase, the IC50 was determined as 130 nM. Besides, at HSV polymerase, the 50% inhibitory concentration (IC50) worked out at 150 nM. At VZV polymerase, this compound came in with an IC50 of 50 nM.
On the same counts, the results for `CCn1cc(C(=O)NCc2ccc(Cl)cc2)c(=O)c2cc(CN(C)CC(O)c3cnccn3)sc21` (racemic) [Example 13, rac-N-(4-Chlorobenzyl)-7-ethyl-2-(((2-hydroxy-2-pyrazin-2-ylethyl)(methyl)amino)methyl)-4-oxo-4,7-dihydrothieno[2,3-b]pyridine-5-carboxamide] are 130 to 133 °C, 370 nM, 550 nM and 170 nM.
On the same counts, the results for `CN(Cc1cc2c(=O)c(C(=O)NCc3ccc(Cl)cc3)cn(C)c2s1)CC(O)c1cccnc1` (single isomer, unassigned; (+)) [Example 2, (+)-N-(4-Chlorobenzyl)-2-(((2-hydroxy-2-pyridin-3-ylethyl)(methyl)amino)methyl)-7-methyl-4-oxo-4,7-dihydrothieno[2,3-b]pyridine-5-carboxamide] are 132 to 135 °C, 80 nM, 350 nM and 130 nM.
In the same order, the values of `CN(Cc1cc2c(=O)c(C(=O)NCc3ccc(Cl)cc3)cn(C)c2s1)C[C@@H](O)c1ccccn1` [Example 5, (+)-N-(4-Chlorobenzyl)-2-((((2R)-2-hydroxy-2-pyridin-2-ylethyl)(methyl)amino)methyl)-7-methyl-4-oxo-4,7-dihydrothieno[2,3-b]pyridine-5-carboxamide] are 139 to 144 °C, 60 nM, 60 nM and 20 nM.
